Values quoted from earlier work, collected in patent US9314429B2, “Rapidly dispersible dosage form of oxcarbazepine” (APRECIA PHARMACEUTICALS COMPANY, priority 2013, dated 2016).

- water solubility: poorly water soluble
Compound: NC(=O)N1c2ccccc2CC(=O)c2ccccc21 [OXC, 10,11-Dihydro-10-oxo-5H-dibenz[b,f]azepine-5-carboxamide]
